# Earlier results, collected in patent publication US12685710B2, “Administration of ciclopirox with no adversal gastrointestinal toxicity” (ATLAS MOLECULAR PHARMA, S.L., priority 2021, dated 2026).
# Test system: patients with hematological malignancies
compound,measurement,setting,value
"Cc1cc(C2CCCCC2)n(O)c(=O)c1 [ciclopirox olamine, 6-cyclohexyl-1-hydroxy-4-methyl-2 (1H)-pyridone with 2-aminoethanol in a 1:1 ratio]","grade 3 GI dose limiting toxicity (DLTs) and bowel inflammation, patients affected in cohort","oral, OraSweet formulation, 80 mg/m^2 (2.2 mg/kg) 4 times daily",3/4
same,tolerability of once-daily dosing,"oral, once daily up to and including 40 mg/m^2 (1.1 mg/kg)",well tolerated
same,gastrointestinal toxicity in Phase I study,patients treated with ciclopirox olamine,showed gastrointestinal toxicity
